Assay results: patent US6815460B2, “Process for preparing prodrugs of benzenesulfonamide-containing cox-2 inhibitors” (Pharmacia Corporation, priority 1996, dated 2004)
Structures can show the parent of a compound that is named as a salt.

How the values were obtained:
Male Sprague-Dawley rats [1] = assay: Rat Carrageenan-induced Analgesia Test; type: in vivo; conditions: dosed orally, inhibition of hyperalgesic foot withdrawal, three hours after carrageenan
Method: Rat Carrageenan-induced Analgesia Test
The rat carrageenan analgesia test was performed with materials, reagents and procedures essentially as described by Hargreaves, et al., (Pain, 32, 77 (1988)). Male Sprague-Dawley rats were treated as previously described for the Carrageenan Foot Pad Edema test. Three hours after the injection of the carrageenan, the rats were placed in a special plexiglass container with a transparent floor having a high intensity lamp as a radiant heat source, positionable under the floor. After an initial twenty minute period, thermal stimulation was begun on either the injected foot or on the contralateral uninjected foot. A photoelectric cell turned off the lamp and timer when light was interrupted by paw withdrawal. The time until the rat withdraws its foot was then measured. The withdrawal latency in seconds was determined for the control and drug-treated groups, and percent inhibition of the hyperalgesic foot withdrawal determined.

[2] = In vitro conversion of prodrugs by S9 liver fractions; type: in vitro ADME; conditions: purified S9 fractions (3 mg/ml), compound 10 ug/ml, 37° C., pH 7.2, 90 minutes, HPLC
Method: IN VITRO CONVERSION OF PRODRUGS
The conversion of the prodrugs by S9 liver fractions was determined by the following method. The S9 liver-fraction suspension (IIAM) was thawed and the suspension was stirred by vortex. The suspension was mixed with 12M urea at 1:7, v:v, (yielding […] final concentration) and further stirred by vortex. The S9 suspension solution was partially purified by solid phase extraction (Vac-Elut apparatus:C18 columns (Varian #1210-2001)) eluting with acetonitrile. The fractions were mixed by vortex and concentrated to dryness under nitrogen (no heat). The fractions were resuspended in 100 μl acetonitrile:phosphate buffer (8.3 mM, pH 7.2) (20:80).
The compounds were dissolved in water (0.2 ml, 10 ug/ml) and incubated at 37° C. (pH 7.2, 90 minutes) with purified S9 fractions (0.2 ml, 3 mg/ml). Conversion of the prodrug to the active COX-2 inhibitor was followed by HPLC (Beckmann System Gold, Novapak C18 column (3.9×150 mm), acetonitrile:phosphate buffer (8.3 mM, pH 7.2) (20:80-40:60), UV detection 240 nm). Quantitation of the conversion of the prodrug was determined by measurement of integrated HPLC peak area.

Male Sprague-Dawley rats [3] = assay: Rat Carrageenan Foot Pad Edema Test; type: in vivo; conditions: dosed orally one hour before carrageenan, foot volume three hours after carrageenan
Method: Rat Carrageenan Foot Pad Edema Test
The carrageenan foot edema test was performed with materials, reagents and procedures essentially as described by Winter, et al., (Proc. Soc. Exp. Biol. Med., 111, 544 (1962)). Male Sprague-Dawley rats were selected in each group so that the average body weight was as close as possible. Rats were fasted with free access to water for over sixteen hours prior to the test. The rats were dosed orally (1 mL) with compounds suspended in vehicle containing 0.5% methylcellulose and 0.025% surfactant, or with vehicle alone. One hour later a subplantar injection of 0.1 mL of 1% solution of carrageenan/sterile 0.9% saline was administered and the volume of the injected foot was measured with a displacement plethysmometer connected to a pressure transducer with a digital indicator. Three hours after the injection of the carrageenan, the volume of the foot was again measured. The average foot swelling in a group of drug-treated animals was compared with that of a group of placebo-treated animals and the percentage inhibition of edema was determined (Otterness and Bliven, Laboratory Models for Testing NSAIDs, in Non-steroidal Anti-Inflammatory Drugs, (J. Lombardino, ed. 1985)).

Compound	Metabolism of Prodrugs: Parent (% remaining) [2] [%]	melting point [°C]	ANALGESIA % Inhibition @ 10 mg/kg body weight (Male Sprague-Dawley rats [1]; Sodium Salt) [%]	RAT PAW EDEMA % Inhibition @ 30 mg/kg body weight (Male Sprague-Dawley rats [3]; Sodium Salt) [%]	ANALGESIA % Inhibition @ 10 mg/kg body weight (Male Sprague-Dawley rats [1]) [%]	RAT PAW EDEMA % Inhibition @ 30 mg/kg body weight (Male Sprague-Dawley rats [3]) [%]
CC(=O)NS(=O)(=O)c1ccc(-c2c(-c3cccc(F)c3)noc2C)cc1 [Example 14, N-[[4-[3-(3-Fluorophenyl)-5-methylisoxazol-4-yl]phenyl]sulfonyl]acetamide, Sodium Salt]	63.4	–	41	65	–	–
CC(=O)NS(=O)(=O)c1ccc(-c2c(-c3cccc(F)c3)noc2C)cc1 [Example 13, N-[[4-[3-(3-Fluorophenyl)-5-methylisoxazol-4-yl]phenyl]sulfonyl]acetamide]	–	144 to 145	–	–	61.5	58
CC(=O)[N-]S(=O)(=O)c1ccc(-n2cc(C(F)(F)F)nc2-c2cncc(C)c2)cc1.[Na+] [Example 4, N-[[4-[2-(5-Methylpyridin-3-yl)-4-(trifluoromethyl)-1H-imidazol-1-yl]phenyl]sulfonyl]acetamide, Sodium Salt]	–	278 to 281	–	–	–	–

Now from value to compound, other results behind:

Metabolism of Prodrugs: Parent (% remaining) [2] [%]	melting point [°C]	Compound	ANALGESIA % Inhibition @ 10 mg/kg body weight (Male Sprague-Dawley rats [1]; Sodium Salt) [%]	RAT PAW EDEMA % Inhibition @ 30 mg/kg body weight (Male Sprague-Dawley rats [3]; Sodium Salt) [%]	ANALGESIA % Inhibition @ 10 mg/kg body weight (Male Sprague-Dawley rats [1]) [%]	RAT PAW EDEMA % Inhibition @ 30 mg/kg body weight (Male Sprague-Dawley rats [3]) [%]
3.3	–	CCC(=O)NS(=O)(=O)c1ccc(-c2c(-c3ccccc3)noc2C)cc1 [Example 18, N-[[4-(5-Methyl-3-phenylisoxazol-4-yl]phenyl]sulfonyl]propanamide, Sodium Salt]	–	–	–	–
0.8	–	CCCC(=O)NS(=O)(=O)c1ccc(-c2c(-c3ccccc3)noc2C)cc1 [Example 25, N-[[4-(5-Methyl-3-phenylisoxazol-4-yl)phenyl]sulfonyl]butanamide, Sodium Salt]	–	–	33	60
